Laboratory results from US20250195524A1, “PYRIMIDO-PYRIDAZINONE COMPOUND AS TOLL-LIKE RECEPTOR AGONIST” (SHANGHAI VISONPHARMA CO., LTD., priority 2022, published 2025).

How the values were obtained:
[1] = biological target: T1, human TLR7 (Homo sapiens, UniProt Q9NYK1); test: HEK-Blue hTLR7 SEAP reporter gene agonism assay; assay type: cell-based; details: HEK-Blue hTLR7 cells, SEAP (Quanti-blue, 650 nm), 16-22 hours incubation
T1 construct: host or cells: HEK-Blue hTLR7 (HEK293-derived reporter cells)
T1 sequence (Q9NYK1 27-1049): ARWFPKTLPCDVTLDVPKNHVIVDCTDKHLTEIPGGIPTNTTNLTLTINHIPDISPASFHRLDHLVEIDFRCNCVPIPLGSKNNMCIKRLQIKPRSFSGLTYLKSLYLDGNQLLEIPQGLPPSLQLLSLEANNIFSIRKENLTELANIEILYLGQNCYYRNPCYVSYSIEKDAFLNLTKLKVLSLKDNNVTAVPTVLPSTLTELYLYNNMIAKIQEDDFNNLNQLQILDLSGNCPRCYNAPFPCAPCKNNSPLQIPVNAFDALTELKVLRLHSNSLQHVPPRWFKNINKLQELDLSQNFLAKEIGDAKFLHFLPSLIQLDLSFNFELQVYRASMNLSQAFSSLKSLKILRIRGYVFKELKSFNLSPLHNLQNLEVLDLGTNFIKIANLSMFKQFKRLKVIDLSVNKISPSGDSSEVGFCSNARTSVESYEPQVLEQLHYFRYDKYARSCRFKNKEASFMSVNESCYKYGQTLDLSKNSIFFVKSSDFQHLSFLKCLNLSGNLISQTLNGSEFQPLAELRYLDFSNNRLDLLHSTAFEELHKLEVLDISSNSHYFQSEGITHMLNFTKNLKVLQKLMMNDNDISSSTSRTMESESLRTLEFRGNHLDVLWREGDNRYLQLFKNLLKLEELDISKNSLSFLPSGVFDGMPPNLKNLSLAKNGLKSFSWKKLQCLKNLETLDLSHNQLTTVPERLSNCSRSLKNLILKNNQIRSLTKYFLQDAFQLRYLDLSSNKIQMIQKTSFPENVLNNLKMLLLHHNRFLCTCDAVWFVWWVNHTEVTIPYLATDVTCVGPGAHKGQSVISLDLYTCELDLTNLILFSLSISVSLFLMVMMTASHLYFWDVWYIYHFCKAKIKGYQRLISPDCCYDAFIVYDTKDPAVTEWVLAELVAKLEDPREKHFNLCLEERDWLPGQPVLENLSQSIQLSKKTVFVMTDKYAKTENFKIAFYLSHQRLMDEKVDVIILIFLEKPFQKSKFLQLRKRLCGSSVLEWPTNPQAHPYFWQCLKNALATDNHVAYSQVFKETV
Procedure: (§1) The agonistic activity of the compounds of the present invention on TLR7 or TLR8 was evaluated using HEK-Blue™ cells stably expressing human TLR7 or TLR8. And the agonistic activity was assayed using their ability to induce the SEAP reporter gene under the control of the IFN-β minimal promoter fused to five NF-κB and ap-1 binding sites, specifically as follows:
(§2) HEK-Blue™ hTLR7 (Invivogen, 80,000 cells per well) or HEK-Blue™ hTLR8 (Invivogen, 60,000 cells per well) was added to a 96-well cell culture plate, the compound to be tested is added whereafter, and the final concentration of the compound(s) to be tested in the medium ranged from 0.001 to 36 μM, then incubated for 16-22 hours. SEAP levels in the cell culture medium were detected using HEK-Blue assay reagent Quanti-blue (Invivogen) according to the manufacturer's instructions. Neo2 Multifunctional Enzyme Labeler (Bio-tek) was used to determine the light absorption at 650 nm. GraphPad Prism was utilized to calculate the EC50, which is the half effective concentration of the drug.

[2] = biological target: T2, human TLR8 (Homo sapiens, UniProt Q9NR97); test: HEK-Blue hTLR8 SEAP reporter gene agonism assay; assay type: cell-based; details: HEK-Blue hTLR8 cells, SEAP (Quanti-blue, 650 nm), 16-22 hours incubation
T2 construct: host or cells: HEK-Blue hTLR8 (HEK293-derived reporter cells)
T2 sequence (Q9NR97 27-1041): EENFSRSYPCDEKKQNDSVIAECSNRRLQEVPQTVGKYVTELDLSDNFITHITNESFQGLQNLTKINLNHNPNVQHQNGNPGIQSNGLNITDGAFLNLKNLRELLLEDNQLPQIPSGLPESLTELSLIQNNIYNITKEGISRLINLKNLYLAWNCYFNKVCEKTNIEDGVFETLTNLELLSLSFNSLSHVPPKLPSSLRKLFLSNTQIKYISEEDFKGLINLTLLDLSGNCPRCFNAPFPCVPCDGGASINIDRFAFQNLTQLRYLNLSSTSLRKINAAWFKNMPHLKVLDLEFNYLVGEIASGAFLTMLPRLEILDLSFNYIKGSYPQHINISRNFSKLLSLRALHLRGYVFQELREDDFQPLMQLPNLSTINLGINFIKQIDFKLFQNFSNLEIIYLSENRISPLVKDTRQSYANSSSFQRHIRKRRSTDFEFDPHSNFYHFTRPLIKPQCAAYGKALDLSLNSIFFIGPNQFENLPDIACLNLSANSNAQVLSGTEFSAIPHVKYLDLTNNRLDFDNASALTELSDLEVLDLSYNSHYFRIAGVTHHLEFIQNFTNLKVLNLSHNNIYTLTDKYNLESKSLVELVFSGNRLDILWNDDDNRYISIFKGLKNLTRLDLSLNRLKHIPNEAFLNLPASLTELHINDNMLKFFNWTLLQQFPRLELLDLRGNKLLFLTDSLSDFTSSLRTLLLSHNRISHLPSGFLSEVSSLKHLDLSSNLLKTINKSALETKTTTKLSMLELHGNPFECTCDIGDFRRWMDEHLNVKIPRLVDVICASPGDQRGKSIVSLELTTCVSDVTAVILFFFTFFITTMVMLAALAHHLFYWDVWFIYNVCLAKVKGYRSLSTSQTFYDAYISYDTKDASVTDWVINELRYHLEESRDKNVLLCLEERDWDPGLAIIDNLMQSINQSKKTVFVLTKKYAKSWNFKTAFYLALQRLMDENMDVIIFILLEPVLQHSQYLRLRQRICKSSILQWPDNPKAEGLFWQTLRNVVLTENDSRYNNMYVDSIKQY
Procedure: as §1, §2

Compound	EC50 [1]	EC50 [2]
CCCCNc1nc(N)nc2cnn(Cc3ccc(OCCNC)cc3)c(=O)c12 [Compound I-19, 2-amino-4-(butylamino)-6-(4-(2-(methylamino)ethoxy)benzyl)pyrimido[4,5-d]pyridazin-5(6H)-one]	922 nM	149 nM
CCC[C@@H](C)Nc1nc(N)nc2cnn(Cc3ccc(C(=O)N4CCNCC4)cc3OC)c(=O)c12 [Compound I-24, (R)-2-amino-6-(2-methoxy-4-(piperazine-1-carbonyl)benzyl)-4-(pentan-2-ylamino)pyrimido[4,5-d]pyridazin-5(6H)-one]	634 nM	194 nM
CCC[C@@H](C)Nc1nc(N)nc2cnn(Cc3ccc(CN4CCCC4)cc3)c(=O)c12 [Compound I-40, (R)-2-amino-4-(pentan-2-ylamino)-6-(4-(pyrrolidin-1-ylmethyl)benzyl)pyrimido[4,5-d]pyridazin-5(6H)-one]	900 nM	83 nM
CCC[C@@H](C)Nc1nc(N)nc2cnn(Cc3ccc(CN4CCN(C)CC4)cc3)c(=O)c12 [Compound I-48, (R)-2-amino-6-(4-((4-methylpiperazin-1-yl)methyl)benzyl)-4-(pentan-2-ylamino)pyrimido[4,5-d]pyridazin-5(6H)-one]	921 nM	203 nM
CCC[C@@H](C)Nc1nc(N)nc2cnn(Cc3ccc(CN4CCNCC4)cc3)c(=O)c12 [Compound I-50, (R)-2-amino-4-(pentan-2-ylamino)-6-(4-(piperazin-1-ylmethyl)benzyl)pyrimido[4,5-d]pyridazin-5(6H)-one]	770 nM	157 nM
CCCN[C@H](C)c1ccc(Cn2ncc3nc(N)nc(N[C@H](C)CCC)c3c2=O)cc1 [Compound I-51, 2-amino-4-(((R)-pentan-2-yl)amino)-6-(4-((R)-1-(propylamino)ethyl)benzyl)pyrimido[4,5-d]pyridazine-5(6H)-one]	892 nM	141 nM
CCC[C@@H](C)Nc1nc(N)nc2cnn(Cc3ccc(OCCNC)nc3OC)c(=O)c12 [Compound I-53, (R)-2-amino-6-((2-methoxy-6-(2-(methylamino)ethoxy)pyridin-3-yl)methyl)-4-(pentan-2-ylamino)pyrimido[4,5-d]pyridazin-5(6H)-one]	597 nM	175 nM
CCC[C@@H](CO)Nc1nc(N)nc2cnn(Cc3ccc(CN4CCN(C)CC4)cc3)c(=O)c12 [Compound I-66, (S)-2-amino-4-((1-hydroxypentan-2-yl)amino)-6-(4-((4-methylpiperazin-1-yl)methyl)benzyl)pyrimido[4,5-d]pyridazin-5(6H)-one]		23 nM
CCCC[C@@H](CO)Nc1nc(N)nc2cnn(Cc3ccc(CN4CCCC4)cc3)c(=O)c12 [Compound I-67, (S)-2-amino-4-((1-hydroxyhexan-2-yl)amino)-6-(4-(pyrrolidin-1-ylmethyl)benzyl)pyrimido[4,5-d]pyridazin-5(6H)-one]		51 nM

The remaining molecules from weak to strong by EC50 [2], led by results:

EC50 [1]	EC50 [2]	Compound
	589 nM	CCCCNc1nc(N)nc2cnn(Cc3ccc(CN4CCCC4)cn3)c(=O)c12 [Compound I-62, 2-amino-4-(butylamino)-6-((5-(pyrrolidin-1-ylmethyl)pyridin-2-yl)methyl)pyrimido[4,5-d]pyridazin-5(6H)-one]
	534 nM	CCC[C@@H](CC)Nc1nc(N)nc2cnn(Cc3ccc(CN4CCCC4)cc3)c(=O)c12 [Compound I-63, (R)-2-amino-4-(hexan-3-ylamino)-6-(4-(pyrrolidin-1-ylmethyl)benzyl)pyrimido[4,5-d]pyridazin-5(6H)-one]
	192 nM	CCC[C@@H](C)Nc1nc(N)nc2cnn(Cc3ccc(C(=O)N4CCN(C)CC4)cc3)c(=O)c12 [Compound I-60, (R)-2-amino-6-(4-(4-methylpiperazine-1-carbonyl)benzyl)-4-(pentan-2-ylamino)pyrimido[4,5-d]pyridazin-5(6H)-one]
641 nM	181 nM	CCC[C@@H](C)Nc1nc(N)nc2cnn(Cc3ccc(OCCNC)cc3)c(=O)c12 [Compound I-39, (R)-2-amino-6-(4-(2-(methylamino)ethoxy)benzyl)-4-(pentan-2-ylamino)pyrimido[4,5-d]pyridazin-5(6H)-one]
631 nM	147 nM	CCC[C@@H](C)Nc1nc(N)nc2cnn(Cc3ccc(CN4CCCC4)cc3OC)c(=O)c12 [Compound I-25, (R)-2-amino-6-(2-methoxy-4-(pyrrolidin-1-ylmethyl)benzyl)-4-(pentan-2-ylamino)pyrimido[4,5-d]pyridazin-5(6H)-one]
785 nM	125 nM	CCCN[C@@H](C)c1ccc(Cn2ncc3nc(N)nc(N[C@H](C)CCC)c3c2=O)cc1 [Compound I-52, 2-amino-4-(((R)-pentan-2-yl)amino)-6-(4-((S)-1-(propylamino)ethyl)benzyl)pyrimido[4,5-d]pyridazine-5(6H)-one]
964 nM	73 nM	CCC[C@@H](C)Nc1nc(N)nc2cnn(Cc3ccc(CN(C)CCO)cc3)c(=O)c12 [Compound I-49]
357 nM	70 nM	CCC[C@@H](C)Nc1nc(N)nc2cnn(Cc3ccc(OCCNC)nc3)c(=O)c12 [Compound I-47, (R)-2-amino-6-((6-(2-(methylamino)ethoxy)pyridin-3-yl)methyl)-4-(pentan-2-ylamino)pyrimido[4,5-d]pyridazin-5(6H)-one]
	41 nM	CCC[C@@H](CO)Nc1nc(N)nc2cnn(Cc3ccc(C(=O)N4CCN(C)CC4)cc3)c(=O)c12 [Compound I-69, (S)-2-amino-4-((1-hydroxypentan-2-yl)amino)-6-(4-(4-methylpiperazine-1-carbonyl)benzyl)pyrimido[4,5-d]pyridazin-5(6H)-one]
	20 nM	CCC[C@@H](CO)Nc1nc(N)nc2cnn(Cc3ccc(C(=O)N4CC5CC(C4)N5)cc3)c(=O)c12 [Compound I-70, 6-(4-(3,6-diazabicyclo[3.1.1]heptane-3-carbonyl)benzyl)-2-amino-4-(((S)-1-hydroxypentan-2-yl)amino)pyrimido[4,5-d]pyridazin-5(6H)-one]
	9 nM	CCC[C@@H](CO)Nc1nc(N)nc2cnn(Cc3ccc(CN4CCCC4)cc3)c(=O)c12 [Compound I-59, (S)-2-amino-4-((1-hydroxypentan-2-yl)amino)-6-(4-(pyrrolidin-1-ylmethyl)benzyl)pyrimido[4,5-d]pyridazin-5(6H)-one]
